ChEMBL document CHEMBL1130439, “Constrained analogues of 2-nor cyclic nucleoside monophosphates” (1997)

Assays:
[1] = tested on: F2002 cell line; assay: The compound was tested for inhibitory activity against human cytomegalovirus (HCMV) in flow 2002 cells; no inhibition up to 100 ug/ml.; assay type: functional, cell-based
[2] = tested on: F2002 cell line; assay: The compound was tested for inhibitory activity against human cytomegalovirus (HCMV) in flow 2002 cells; assay type: functional; settings: read-out: CD50 (the source's name)
[3] = tested on: F2002 cell line; assay: The compound was tested for inhibitory activity against human cytomegalovirus (HCMV) (WFl strain) in plaque reduction assay in flow 2002 cells; assay type: functional
[4] = tested on: Vero; assay: Compound was tested against HSV-1 (KOS strain) in plaque reduction assay in Vero cells; no inhibition up to 100 ug/ml.; assay type: functional, cell-based; settings: Chlorocebus sabaeus
[5] = tested on: MT4; assay: Compound was tested against HIV-l (RF strain) in plaque reduction assay in MT-4 cells; no inhibition up to 100 ug/ml.; assay type: functional, cell-based; settings: Homo sapiens
[6] = tested on: Vero; assay: Compound was tested against HSV-2 (186 strain) in plaque reduction assay in Vero cells; no inhibition up to 100 ug/ml.; assay type: functional, cell-based; settings: Chlorocebus sabaeus
[7] = tested on: MT4; assay: Compound was tested against HIV-l (RF strain) in plaque reduction assay in MT-4 cells; no inhibition up to 100 ug/ml..; assay type: functional, cell-based; settings: Homo sapiens

Row | Compound | Activity [1] | CC50 [2] | PD50 [3] | Activity [4] | Activity [5] | Activity [6] | Activity [7]
1 | CC(=O)Nc1ccn(C2CSC(CO)(CO)O2)c(=O)n1 (stereo not given) | No inhibition | – | – | – | – | – | –
2 | Nc1nc2c(ncn2COC(CO)CO)c(=O)[nH]1 [GANCICLOVIR] | – | > 100 µg/mL | 0.1 µg/mL | – | – | – | –
3 | Cc1cn(C2CSC3(COP(=O)(O)OC3)O2)c(=O)[nH]c1=O (stereo not given) | – | > 100 µg/mL | >100 µg/mL | No inhibition | No inhibition | No inhibition | –
4 | N.Nc1ccn(C2CSC3(COP(=O)(O)OC3)O2)c(=O)n1 (stereo not given) | – | > 100 µg/mL | 11 µg/mL | No inhibition | No inhibition | No inhibition | –
5 | Nc1nc(=O)n(C2CSC3(COP(=O)(O)OC3)O2)cc1Br (stereo not given) | – | > 100 µg/mL | 2.5 µg/mL | No inhibition | No inhibition | No inhibition | –
6 | O=c1ccn(C2CSC3(COP(=O)(O)OC3)O2)c(=O)[nH]1 (stereo not given) | – | > 100 µg/mL | 2.5 µg/mL | No inhibition | – | No inhibition | No inhibition
7 | CC(=O)Nc1nc(=O)n(C2CSC(CO)(CO)O2)cc1Br (stereo not given) | No inhibition | – | – | – | – | – | –
8 | O=c1ccn(C2CSC(CO)(CO)O2)c(=O)[nH]1 (stereo not given) | No inhibition | – | – | – | – | – | –
9 | N.Nc1nc2c(ncn2C2CSC3(COP(=O)(O)OC3)O2)c(=O)[nH]1 (stereo not given) | – | > 100 µg/mL | >100 µg/mL | No inhibition | No inhibition | No inhibition | –
10 | Nc1nc(=O)n(C2CSC3(COP(=O)(O)OC3)O2)cc1F (stereo not given) | – | > 100 µg/mL | >100 µg/mL | No inhibition | No inhibition | No inhibition | –
